Common to all, as to assay type: in vivo
In assay [1] the test system is Spodoptera frugiperda. The assay can be described thus: Spodoptera frugiperda - spray test. The following applies: in Zea mays, 168 h, read-out: mortality in %. The gist of the method: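 Maize leaf sections were sprayed with compound formulated in solvent and diluted in water containing 1000 ppm emulsifier, then infested with fall armyworm larvae after drying. Percent mortality was scored after 7 days (100% = all caterpillars dead, 0% = none).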

The subject of assay [2] is Diabrotica balteata. The assay can be described thus: Diabrotica balteata - spray test. To be noted: 168 h, 160 μg/well, germinated wheat seeds, larvae, after 7 days, read-out: efficacy in %. The gist of the method: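 Wheat seeds germinated 1 day on agar were sprayed with compound diluted in water with 1000 ppm emulsifier, then infested with 10-20 Diabrotica balteata larvae. Efficacy in % scored after 7 days: 100% = seedlings grown as untreated, uninfected control; 0% = no seedlings grown.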

The test system of assay [3] is Myzus persicae. The assay can be described thus: Myzus persicae - spray test. To be noted: foliar, 120 h, Chinese cabbage leaf disks, all instars, after 5 days. Here is the method:
Myzus persicae—Spray Test
(§1) To produce a suitable preparation of active compound, 1 part by weight of active compound is mixed with the stated amount of solvents and is diluted with water, containing an emulsifier concentration of 1000 ppm, to the desired concentration. Further test concentrations are prepared by dilution with emulsifier containing water.
Chinese cabbage (Brassica pekinensis) leaf disks infected with all instars of the green peach aphid (Myzus persicae), are sprayed with a preparation of the active ingredient of the desired concentration.
After 5 days mortality in % is determined. 100% means all aphids have been killed and 0% means none of the aphids have been killed.

Assay [4] concerns Nezara viridula. Kind of assay: Nezara viridula - spray test 1. To be noted: in Hordeum vulgare, 96 h, read-out: mortality in %. The gist of the method: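 Barley plants carrying southern green stink bug larvae were sprayed with compound diluted in water with 1000 ppm emulsifier. Mortality (%) was scored after 4 days.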
Assay [5] deals with Nilaparvata lugens. Kind of assay: Nilaparvata lugens - spray test 1. To be noted: in Oryza sativa, 96 h, read-out: mortality in %, 500 g/ha, rice plants, after 4 days. The gist of the method:
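Rice plants (Oryza sativa) were sprayed with the compound preparation in water containing 1000 ppm emulsifier, then infested with brown planthoppers. Percent mortality scored after 4 days (100% = all killed, 0% = none).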

Assay [6] deals with Aphis gossypii. Kind of assay: Aphis gossypii - oral test. To be noted: 120 h, read-out: mortality in %. The gist of the method:
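Mixed-population cotton aphids feed through parafilm on compound (acetone stock diluted in water) mixed with IPL41 insect medium containing sugar. Mortality (%) scored after 5 days.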

In assay [7] the test system is Phaedon cochleariae. Kind of assay: Phaedon cochleariae - spray test. To be noted: in Brassica rapa, foliar, 168 h, read-out: mortality in %. The gist of the method:
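Chinese cabbage leaf disks sprayed with compound diluted in water containing 1000 ppm emulsifier, then infested with mustard beetle larvae once dry. Mortality in % scored after 7 days (100% = all larvae killed, 0% = none).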

The test system of assay [8] is Tetranychus urticae. Kind of assay: Tetranychus urticae - spray test OP-resistant. The following applies: foliar, 144 h, French bean leaf disks, all instars, after 6 days. How it is done: Tetranychus urticae—Spray Test OP-Resistant
as §1
French bean (Phaseolus vulgaris) leaf disks infected with all instars of the two spotted spidermite (Tetranychus urticae), are sprayed with a preparation of the active ingredient of the desired concentration.
After 6 days mortality in % is determined. 100% means all spider mites have been killed and 0% means none of the spider mites have been killed.

In assay [9] the test system is Blattella germanica strain PAULINIA
Kind of assay: Blattella germanica test (BLTTGE surface treatment & contact assay). The following applies: 30 minutes exposure, 24 hours after contact, read-out: efficacy (mortality in percent); for mortality at 4 mg/m2: surface concentration 4 mg/m^2, glazed tile; for mortality at 20 mg/m2: surface concentration 20 mg/m^2, glazed tile. Here is the method: Blattella germanica Test (BLTTGE Surface Treatment & Contact Assay)
(§2) Solvent: Aceton+2000 ppm Rapeseed oil methyl ester (RME)
In order to produce a sufficient, active ingredient containing solution it is necessary to solve the test-compound in an acetone/RME solvent mixture. This solution is pipetted onto a glazed tile and after evaporation of the acetone, adult animals of the species Blattella germanica strain PAULINIA are placed onto the dried surface. The exposure time is 30 minutes.
(§3) Mortality in percent (%) is determined 24 hours after contact to the treated surface. 100% mortality means that all test-insects are dead, whereas 0% means that not a single insect died.

Assay [10] concerns Culex quinquefasciatus. The assay can be described thus: Culex test (CULXFAS surface treatment & contact assay). To be noted: 30 minutes exposure, 24 hours after contact, read-out: efficacy (mortality in percent); for mortality at 4 mg/m2: surface concentration 4 mg/m^2, glazed tile; for mortality at 20 mg/m2: surface concentration 20 mg/m^2, glazed tile. How it is done:
Culex Test (CULXFAS Surface Treatment & Contact Assay)
Solvent: Acetone+2000 ppm rapeseed oil methyl ester (RME)
In order to produce a sufficient, active ingredient containing solution it is necessary to solve the test-compound in an acetone/RME solvent mixture. This solution is pipetted onto a glazed tile and after evaporation of the acetone, adult mosquitoes of the species Culex quinquefasciatus (Brown house mosquito) are placed onto the dried surface. The exposure time is 30 minutes.
as §3

Assay [11] deals with Aedes aegypti strain MONHEIM. The assay can be described thus: Aedes test (AEDSAE surface treatment & contact assay). To be noted: 30 minutes exposure, 24 hours after contact, read-out: efficacy (mortality in percent); for mortality at 4 mg/m2: surface concentration 4 mg/m^2, glazed tile; for mortality at 20 mg/m2: surface concentration 20 mg/m^2, glazed tile. Here is the method: Aedes Test (AEDSAE Surface Treatment & Contact Assay)
Solvent: Aceton+2000 ppm rapeseed oil methyl ester (RME)
In order to produce a sufficient, active ingredient containing solution it is necessary to solve the test-compound in an acetone/RME solvent mixture. This solution is pipetted onto a glazed tile and after evaporation of the acetone, adult mosquitoes of the species Aedes aegypti strain MONHEIM are placed onto the dried surface. The exposure time is 30 minutes.
as §3

For assay [12], the system named is Myzus persicae. Kind of assay: Myzus persicae - oral test. To be noted: 120 h, read-out: mortality in %. The gist of the method: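 Mixed-population green peach aphids fed through parafilm on compound diluted in water plus IPL41 insect medium (33%+15% sugar). Mortality (%) scored after 5 days, 100% meaning all aphids killed.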
The subject of assay [13] is Musca domestica strain WHO-N. The assay can be described thus: Musca domestica test (MUSCDO surface treatment & contact assay). To be noted: 30 minutes exposure, 24 hours after contact, read-out: efficacy (mortality in percent); for mortality at 4 mg/m2: surface concentration 4 mg/m^2, glazed tile; for mortality at 20 mg/m2: surface concentration 20 mg/m^2, glazed tile. How it is done: Musca domestica Test (MUSCDO Surface Treatment & Contact Assay)
as §2
In order to produce a sufficient, active ingredient containing solution it is necessary to solve the test-compound in an acetone/RME solvent mixture. This solution is pipetted onto a glazed tile and after evaporation of the acetone, adult flies of the species Musca domestica strain WHO-N are placed onto the dried surface. The exposure time is 30 minutes.
as §3

Assay [14] has as its system Meloidogyne incognita. Kind of assay: Meloidogyne incognita - test. To be noted: 336 h, salad seedlings in sand, after 14 days, read-out: nematicidal activity (percentage of gall formation). Here is the method:
Meloidogyne incognita—Test
Solvent: 125.0 parts by weight of acetone
To produce a suitable preparation of active compound, 1 part by weight of active compound is mixed with the stated amount of solvent, and the concentrate is diluted with water to the desired concentration.
Vessels are filled with sand, a solution of the active ingredient, a suspension containing eggs and larvae of the southern root-knot nematode (Meloidogyne incognita) and salad seeds. The salad seeds germinate and the seedlings grow. Galls develop in the roots.
After 14 days the nematicidal activity is determined on the basis of the percentage of gall formation. 100% means no galls were found and 0% means the number of galls found on the roots of the treated plants was equal to that in untreated control plants.

Drawing on US20200404919A1, “USE OF HETEROARYL-TRIAZOLE AND HETEROARYL-TETRAZOLE COMPOUNDS AS PESTICIDES IN PLANT PROTECTION” (Bayer Aktiengesellschaft, priority 2018, published 2020), this text covers mortality and pest or weed control for eleven molecules.

The structures appear in SMILES notation.

Consider `CC(NC(=O)c1cc(Cl)cc(I)c1)c1ncnn1-c1ncccn1` (stereo not shown) [Compound I-126, 3-chloro-5-iodo-N-[1-(2-pyrimidin-2-yl-1,2,4-triazol-3-yl)ethyl]benzamide], for which the mortality at 500 g/ha in assay [1] came out at 100%; in assay [3], 90%; in [4], 100%. Besides, the pest or weed control at 160 µg/disc, 160 µg/well in [2] was 100%.

For `C[C@H](NC(=O)c1cncc(Br)c1)c1ncnn1-c1ncccn1` [Compound I-134], the pest or weed control at 160 µg/disc, 160 µg/well in [2] was 100%. In addition, the figures for the mortality at 500 g/ha in [3], in [5] and in assay [4] were 90%, 100% and 100%, respectively.

Take `CC(c1ncnn1-c1ncc(F)cn1)N(CC1CC1)C(=O)c1cc(Cl)cc(C(F)(F)F)c1` (stereo not shown) [Compound I-81, 3-chloro-N-(cyclopropylmethyl)-N-[1-[2-(5-fluoropyrimidin-2-yl)-1,2,4-triazol-3-yl]ethyl]-5-(trifluoromethyl)benzamide]: the mortality at 100 ppm in assay [6] was 100%. Further, the mortality at 500 g/ha in assay [1] stood at 100%; in assay [7], 100%; in assay [8], 80%; in [5] it was 100%; in assay [4], 100%. Besides, the pest or weed control at 160 µg/disc, 160 µg/well in assay [2] is 100%. In addition, the mortality at 4 mg/m2 in assay [9], in [10], in [11] and in [13] was 80 to 100% each time. The mortality at 20 mg/m2 in assay [9], in assay [10], in [11] and in [13] was 80 to 100% in each case. For the same molecule, in assay [12], the mortality at 20 ppm was determined as 100%.

On to `CC(c1ncnn1-c1nccc(C(F)(F)F)n1)N(CC1CC1)C(=O)c1cc(Cl)cc(C(F)(F)F)c1` (stereo not shown) [Compound I-82], for which, in assay [6], the mortality at 100 ppm turned out to be 100%. Further, the mortality at 500 g/ha stood at 100% in assay [1]; 100% in assay [7]; 80% in assay [8]; 100% in [5]; 100% in assay [4]. Besides, in [2], the pest or weed control at 160 µg/disc, 160 µg/well was 100%. Also, the pest or weed control at 20 ppm in [14] was found to be 100%. The mortality at 20 ppm in assay [12] came out at 100%.

As for `C[C@H](NC(=O)c1cc(Cl)cc(C(F)(F)F)c1)c1ncnn1-c1ncccc1Cl` [Compound I-116], in assay [6], the mortality at 100 ppm stood at 100%. Further, the mortality at 500 g/ha in assay [1] worked out at 100%; in [7], 100%; in [8] it was 95%; in assay [5] it was 100%; in assay [4], 100%. The pest or weed control at 160 µg/disc, 160 µg/well in assay [2] is 100%. In assay [12], the mortality at 20 ppm was found to be 90%.

With `CC(c1ncnn1-c1ncccn1)N(CC1CC1)C(=O)c1cccc(SC(F)(F)F)c1` (stereo not shown) [Compound I-83], the mortality at 100 ppm in [6] is 100%. For the same molecule, the mortality at 500 g/ha in assay [1] worked out at 83%; in [7] it was 100%; in assay [8], 100%; in assay [5] it was 100%; in assay [4], 100%. Further, in [2], the pest or weed control at 160 µg/disc, 160 µg/well was 100%. The mortality at 20 ppm in assay [12] is 100%.

Regarding `CC(NC(=O)c1cc(Cl)cc(Br)c1)c1ncnn1-c1ncccn1` (stereo not shown) [Compound I-125, 3-bromo-5-chloro-N-[1-(2-pyrimidin-2-yl-1,2,4-triazol-3-yl)ethyl]benzamide], the mortality at 500 g/ha was determined as 100% in assay [1], 90% in assay [3] and 100% in assay [4]. Further, the pest or weed control at 160 µg/disc, 160 µg/well in [2] stood at 100%.

For `CC(c1ncnn1-c1ccncn1)N(CC1CC1)C(=O)c1cc(Cl)cc(C(F)(F)F)c1` (stereo not shown) [Compound I-110], the mortality at 100 ppm in assay [6] was determined as 100%. Also, the mortality at 500 g/ha was 100% in assay [1]; 100% in assay [7]; 95% in assay [8]; 100% in assay [5]; 100% in [4]. Besides, in assay [2], the pest or weed control at 160 µg/disc, 160 µg/well came to 100%. Besides, the mortality at 20 ppm in [12] was determined as 100%.

As to `CC(c1ncnn1-c1ncccn1)N(CC1CC1)C(=O)c1cc(Cl)cc(OC(F)(F)F)c1` (stereo not shown) [Compound I-37, 3-chloro-N-(cyclopropylmethyl)-N-[1-(2-pyrimidin-2-yl-1,2,4-triazol-3-yl)ethyl]-5-(trifluoromethoxy)benzamide], the mortality at 100 ppm in assay [6] turned out to be 100%. The mortality at 500 g/ha in [1] was found to be 100%; in assay [7] it was 100%; in [8], 90%; in [5] it was 100%; in assay [4], 100%. Further, the pest or weed control at 160 µg/disc, 160 µg/well in assay [2] is 100%. Besides, the mortality at 4 mg/m2 in [9], in [10], in assay [11] and in assay [13] was 80 to 100% each time. Moreover, the mortality at 20 mg/m2 in assay [9], in assay [10], in assay [11] and in assay [13] was 80 to 100% each time. Moreover, the mortality at 20 ppm in assay [12] was 100%.

In the case of `CC(NC(=O)c1cc(Cl)cc(Cl)c1)c1ncnn1-c1ncccn1` (stereo not shown) [Compound I-124], the mortality at 500 g/ha in [1] was 100%; in assay [3], 90%; in assay [5], 90%; in assay [4], 100%.

As to `C[C@@H](c1ncnn1-c1ncccn1)N(CC(F)F)C(=O)c1cc(Cl)cc(C(F)(F)F)c1` [Compound I-127, 3-chloro-N-(2,2-difluoroethyl)-N-[(1S)-1-(2-pyrimidin-2-yl-1,2,4-triazol-3-yl)ethyl]-5-(trifluoromethyl)benzamide], the mortality at 500 g/ha in assay [1], in assay [3] and in [4] was 100% throughout. Moreover, in [2], the pest or weed control at 160 µg/disc, 160 µg/well amounted to 100%.
